From patent US20070276017A1, “Thiadiazoline Derivative” (priority 2003, published 2007)
pIC50: −log10 of the molar value.

What was measured:
human Eg5 motor domain = target: T1, human Eg5 motor domain (Homo sapiens, UniProt P52732); test: Eg5 enzyme inhibition test (2): ATPase activity of recombinant human Eg5 motor domain; format: biochemical; conditions: tubulin/paclitaxel, 30° C. for 30 minutes, concentration-dependent inhibition
T1 construct: A plasmid expressing the motor domain of human Eg5 was constructed; made in house; host or cells: Escherichia coli BL21 (DE3)
T1 sequence (P52732 18-359 limits assumed): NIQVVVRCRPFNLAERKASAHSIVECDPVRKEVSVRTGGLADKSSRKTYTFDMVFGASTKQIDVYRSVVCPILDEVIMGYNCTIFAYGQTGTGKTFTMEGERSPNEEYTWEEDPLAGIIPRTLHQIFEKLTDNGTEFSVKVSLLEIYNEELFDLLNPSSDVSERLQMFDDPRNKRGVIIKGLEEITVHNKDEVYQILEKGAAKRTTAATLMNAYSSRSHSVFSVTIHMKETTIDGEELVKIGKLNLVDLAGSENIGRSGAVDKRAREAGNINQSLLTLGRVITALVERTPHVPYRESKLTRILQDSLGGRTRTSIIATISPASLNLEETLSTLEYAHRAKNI
Experimental: A recombinant human Eg5 motor domain protein was prepared by referring to the literature [Biochemistry, Vol. 35, p. 2365 (1996)]. A plasmid expressing the motor domain of human Eg5 was constructed, and transformed into Escherichia coli BL21 (DE3). The transformant was cultured at 25° C., and when the OD600 reached 0.74, isopropyl-β-D-thiogalactoside was added at a final concentration of 0.5 mmol/L. The transformant was further cultured for 4 hours, and then the culture medium was centrifuged to collect the cells. The cells were suspended in a buffer and ultrasonicated, and then the sonicated solution was centrifuged to recover the supernatant. The supernatant was purified by cation exchange column chromatography to obtain a partially purified sample. Furthermore, the partially purified sample was purified by gel filtration column chromatography to obtain a finally purified sample.
Measurement of the ATPase activity of Eg5 was carried out by referring to the literatures [EMBO Journal, Vol. 13, p. 751 (1994); Proc. Natl. Acad. Sci. USA, Vol. 89, p. 4884 (1992)]. The following two kinds of solutions were prepared: Solution A consisting of 25 mmol/L piperazine N,N′-bis(ethanesulfonate) (PIPES)/KOH (pH 6.8), 1 mmol/L ethylene glycol-bis(2-aminoethyl ether)tetraacetic acid (EGTA), 2 mmol/L MgCl2, 1 mmol/L dithiothreitol (DTT), 5 μmol/L paclitaxel, 167 μg/mL bovine serum albumin (BSA), 41.7 μg/mL tubulin (Cytoskeleton, Catalog No. TL238), 333 μmol/L MESG substrate (2-amino-6-mercapto-7-methylpurine riboside) (Molecular Probes, Catalog Number E-6646), 1.67 U/mL purine nucleoside phosphorylase (Molecular Probe, Catalog No. E-6646) and 1.33 μg/mL of the human Eg5 motor domain purified sample, and Solution B consisting of 25 mmol/L piperazine N,N′-bis(ethanesulfonate) (PIPES)/KOH (pH 6.8), 1 mmol/L ethylene glycol-bis(2-aminoethyl ether)tetraacetic acid (EGTA), 2 mmol/L MgCl2, 1 mmol/L dithiothreitol (DTT), 5 μmol/L paclitaxel and 2.5 mmol/L ATP. Solution A was dispensed into each well of a 96-well plate as 45 μL portions. Solution B was used to serially dilute a test compound. The diluted test compound solutions in a volume of 30 μL were mixed with Solution A added beforehand in each well of the 96-well plate to start the enzymatic reaction. The enzymatic reaction was performed at 30° C. for 30 minutes. Absorbance at 360 nm, which serves as an index of the ATPase activity, was measured using a plate reader (Molecular Device, SpectraMax 340PC^384). The absorbance observed in the presence of Eg5 and absence of the test compound was defined 100%, and the absorbance observed in the absence of both Eg5 and the test compound was defined 0%. The relative activity was calculated to calculate IC50 value.

[1] = system: HCT 116 human colon carcinoma cells; test: Antiproliferative activity against HCT 116 human colon carcinoma cells (XTT, 72 hours); format: cell-based; conditions: read-out: GI50, concentration of compound which induces 50% inhibition of cell proliferation, HCT 116 cells, 72 hours incubation
Experimental: HCT 116 cells (ATCC No.: CCL-247) were placed on a 96-well microtiter plate (Nunc, 167008) at a density of 1×10^3 cells/well. The plate was incubated in a 5% CO2 incubator at 37° C. for 24 hours, and then to the plate was added test compounds diluted stepwise to […] in total, and the plate was further incubated in a 5% CO2 incubator at 37° C. for 72 hours. To the culture medium, the XTT (sodium 3′-[1-(phenylaminocarbonyl)-3,4-tetrazolium]-bis(4-methoxy-6-nitro)benzenesulfonic acid hydrate) labeling mixture (Roche Diagnostics, 1465015) was dispensed in […] portions, then the plate was incubated in a 5% CO2 incubator at 37° C. for 1 hour, and the absorbance was measured at 490 nm and 655 nm with a microplate spectrophotometer (Bio-Rad, Model 550).
GI50 calculation method: The value (difference in absorbance) was calculated by subtracting the absorbance at 655 nm from the absorbance at 490 nm of each well.

pIC50 (human Eg5 motor domain)	GI50 [1]	SMILES
≥ 5.30	< 10 µM	COC(=O)N1CCN(CCCC2(c3ccccc3)SC(NC(=O)C(C)(C)C)=NN2C(=O)C(C)(C)C)CC1 (stereo not drawn) [Compound 122]
≥ 5.30	–	CCOCCNCCC1(c2ccccc2)SC(NC(=O)C(C)(C)C)=NN1C(=O)C(C)(C)C (stereo not drawn) [Compound 3]
≥ 5.30	–	CC(C)(C)C(=O)NC1=NN(C(=O)C(C)(C)C)C(CCCNC(=O)CN)(c2ccccc2)S1 (stereo not drawn) [Compound 73]
≥ 5.30	0.065 µM	CC(C)(C)C(=O)NC1=NN(C(=O)C(C)(C)C)C(CCNCCCN2CCCC2=O)(c2ccccc2)S1 (stereo not drawn) [Compound 9]
≥ 5.30	< 10 µM	CC(C)(C)C(=O)NC1=NN(C(=O)C(C)(C)C)C(CCCNC(CO)CO)(c2ccccc2)S1 (stereo not drawn) [Compound 76]
≥ 5.30	–	CC(C)(C)C(=O)NC1=NN(C(=O)C(C)(C)C)C(CCCNCCCO)(c2ccccc2)S1 (stereo not drawn) [Compound 29]
≥ 5.30	–	CNCCCC1(c2ccccc2)SC(NC(=O)C(C)(C)C)=NN1C(=O)C(C)(C)C (stereo not drawn) [Compound 23]
≥ 5.30	< 10 µM	CC(=O)N1N=C(N2CCCCC2=O)SC1(CCNC(=O)CCCN(C)C)c1ccccc1 (stereo not drawn) [Compound 144]

The next lines start with the compound.

SMILES	pIC50 (human Eg5 motor domain)	GI50 [1]
CC(C)(C)C(=O)NC1=NN(C(=O)C(C)(C)C)C(COC(=O)NCCN2CCCC2)(c2ccccc2)S1 (stereo not drawn) [Compound 181]	≥ 5.30	< 10 µM
CC(=O)N1N=C(N2CCCC2=O)SC1(CCCN)c1ccccc1 (stereo not drawn) [Compound 90]	≥ 5.30	–
CC(C)(C)C(=O)NC1=NN(C(=O)C(C)(C)C)C(CCNC(=O)C2CCCN2)(c2ccccc2)S1 (stereo not drawn) [Compound 59]	≥ 5.30	< 10 µM
CC(=O)N1N=C(NC(=O)C(C)(C)C)SC1(CCCN)c1ccccc1 (stereo not drawn) [Compound 88]	≥ 5.30	–
CC(C)(C)C(=O)N1N=C(N2CCCCC2=O)SC1(CCCN)c1ccccc1 (stereo not drawn) [Compound 83]	≥ 5.30	–
CN(C)CCS(=O)(=O)NCCCC1(c2ccccc2)SC(N2CCCCC2=O)=NN1C(=O)C(C)(C)C (stereo not drawn) [Compound 85]	≥ 5.30	< 10 µM
